These are literature values, as cited in patent US20240189272A1, “FORMULATIONS AND COMPOSITIONS OF DOCETAXEL” (Zhuhai Beihai Biotech Co., Ltd., priority 2017, published 2024).

SMILES strings stand for the structures. Entries after “also recorded” stand apart in the source; their conditions may differ.

For data set [1] the following is noted: attributed in part to polysorbate 80.

As to `CC(=O)O[C@@]12CO[C@@H]1C[C@H](O)[C@@]1(C)C(=O)[C@H](O)C3=C(C)[C@@H](OC(=O)[C@H](O)[C@@H](NC(=O)OC(C)(C)C)c4ccccc4)C[C@@](O)([C@@H](OC(=O)c4ccccc4)[C@H]21)C3(C)C` [docetaxel], the water solubility result is reported as “practically insoluble in water; also recorded: very poor water solubility”. Besides, in the data set with plasma proteins (in three cancer patients), the “in vitro binding to plasma proteins” value was “approximately 97%”. Besides, in the data set with plasma proteins (in vitro studies, mainly to α1-acid glycoprotein, albumin, and lipoproteins), the protein bound entry is recorded as “about 94%”. Moreover, in the data set on microtubules, the “potency in inhibiting microtubule depolymerization relative to paclitaxel” value was “about twice as potent as paclitaxel”. Moreover, in data set [1], the “side-effects associated with administration” value is “unpredictable (acute) hypersensitivity reactions and cumulative fluid retention”.
